Measurements: ChEMBL document CHEMBL6182931, “Chemical Evolution of Aplithianine Class of Serine/Threonine Kinase Inhibitors” (J Med Chem, 2025)
The source made the active and inactive calls. The calls are words filed in the database; no cut-off is given here.

Experiments:
[1] = target: NT-3 growth factor receptor (Homo sapiens) (UniProt Q16288); experiment: Inhibition of human TRKC at 50 nM in presence of ATP by radiometric Hotspot kinase assay relative to control
OVCAR-4 = experiment: Antiproliferative activity against human OVCAR-4 cells assessed as growth inhibition; type: functional, cell-based
[2] = target: RAC-beta serine/threonine-protein kinase (Homo sapiens) (UniProt P31751); experiment: Inhibition of human Akt2 at 50 nM in presence of ATP by radiometric Hotspot kinase assay
Sequence of RAC-beta serine/threonine-protein kinase (Homo sapiens) (P31751 whole entry): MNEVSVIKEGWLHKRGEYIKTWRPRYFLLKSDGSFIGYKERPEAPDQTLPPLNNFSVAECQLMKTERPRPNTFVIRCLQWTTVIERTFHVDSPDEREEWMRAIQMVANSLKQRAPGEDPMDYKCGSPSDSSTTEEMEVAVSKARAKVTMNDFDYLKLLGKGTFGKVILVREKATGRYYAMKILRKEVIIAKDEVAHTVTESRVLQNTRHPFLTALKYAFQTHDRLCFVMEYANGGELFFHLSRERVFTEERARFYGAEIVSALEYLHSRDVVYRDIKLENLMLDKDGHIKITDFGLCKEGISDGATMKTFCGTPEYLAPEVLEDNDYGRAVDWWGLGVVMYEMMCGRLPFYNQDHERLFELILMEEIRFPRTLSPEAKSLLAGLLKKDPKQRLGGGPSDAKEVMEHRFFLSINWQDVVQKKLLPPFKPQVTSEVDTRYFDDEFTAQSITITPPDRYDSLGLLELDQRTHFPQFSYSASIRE

[3] = target: Dual specificity tyrosine-phosphorylation-regulated kinase 1B (Homo sapiens) (UniProt Q9Y463); experiment: Inhibition of human DYRK1B at 50 nM in presence of ATP by radiometric Hotspot kinase assay relative to control
MOLT-4 = experiment: Antiproliferative activity against human MOLT-4 cells assessed as growth inhibition; type: functional
[4] = Metabolic stability in human liver microsomes assessed as half-life at 0.1 uM measured after 60 mins; type: ADME, Microsome; conditions: 1 h
[5] = target: Dual specificity protein kinase CLK4 (Homo sapiens) (UniProt Q9HAZ1); experiment: Inhibition of human CLK4 at 50 nM in presence of ATP by radiometric Hotspot kinase assay relative to control
[6] = Inhibition of DNAJB1-PKAcalpha (unknown origin) overexpressed in mouse NIH/3T3 cells assessed as inhibition of CREB phosphorylation at Ser133 residue preincubated for 30 mins followed by forskolin addition and measured after 30 mins by fluorescence based multilabel reader analysis; type: cell-based; conditions: NIH3T3
[7] = target: Dual specificity protein kinase CLK1 (Homo sapiens) (UniProt P49759); experiment: Inhibition of human CLK1 at 50 nM in presence of ATP by radiometric Hotspot kinase assay relative to control
Sequence of Dual specificity protein kinase CLK1 (Homo sapiens) (P49759 whole entry, looked up): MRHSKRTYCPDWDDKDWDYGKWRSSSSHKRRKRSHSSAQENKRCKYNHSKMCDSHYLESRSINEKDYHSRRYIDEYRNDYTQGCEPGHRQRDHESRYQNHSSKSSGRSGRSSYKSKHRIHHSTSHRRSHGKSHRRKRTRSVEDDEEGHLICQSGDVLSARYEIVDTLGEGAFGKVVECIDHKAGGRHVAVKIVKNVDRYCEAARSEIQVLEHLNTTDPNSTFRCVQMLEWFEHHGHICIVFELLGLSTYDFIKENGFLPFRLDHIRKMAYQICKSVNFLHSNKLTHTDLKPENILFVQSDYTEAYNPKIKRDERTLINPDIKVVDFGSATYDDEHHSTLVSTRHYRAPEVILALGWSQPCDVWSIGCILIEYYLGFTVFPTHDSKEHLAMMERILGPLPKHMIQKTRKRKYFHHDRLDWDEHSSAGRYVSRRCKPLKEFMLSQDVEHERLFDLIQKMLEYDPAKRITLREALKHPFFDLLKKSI

[8] = Aqueous solubility of compound in PBS at pH 7.4 by shake-flask method; type: physicochemical
[9] = Drug metabolism in human liver microsomes at 0.1 uM measured after 60 mins; type: ADME, Microsome; conditions: 1 h
[10] = target: cAMP-dependent protein kinase catalytic subunit beta (Homo sapiens) (UniProt P22694); experiment: Inhibition of human PKAbeta at 50 nM in presence of ATP by radiometric Hotspot kinase assay
[11] = Metabolic stability in human liver microsomes assessed as intrinsic clearance at 0.1 uM measured after 60 mins; type: ADME, Microsome; conditions: 1 h
[12] = target: Dual specificity tyrosine-phosphorylation-regulated kinase 1A (Homo sapiens) (UniProt Q13627); experiment: Inhibition of human DYRK1A at 50 nM in presence of ATP by radiometric Hotspot kinase assay relative to control
[13] = Apparent permeability across basolateral to apical side in human Caco-2 cells at 10 uM; type: ADME, cell-based; conditions: caco-2, 10 µM
NCI/ADR-RES = experiment: Antiproliferative activity against human NCI/ADR-RES cells assessed as growth inhibition; type: functional, cell-based
[14] = target: T1, cGMP-dependent protein kinase 1 (Homo sapiens) (UniProt Q13976); conditions: dose 50.0 nM
T1 sequence (whole entry): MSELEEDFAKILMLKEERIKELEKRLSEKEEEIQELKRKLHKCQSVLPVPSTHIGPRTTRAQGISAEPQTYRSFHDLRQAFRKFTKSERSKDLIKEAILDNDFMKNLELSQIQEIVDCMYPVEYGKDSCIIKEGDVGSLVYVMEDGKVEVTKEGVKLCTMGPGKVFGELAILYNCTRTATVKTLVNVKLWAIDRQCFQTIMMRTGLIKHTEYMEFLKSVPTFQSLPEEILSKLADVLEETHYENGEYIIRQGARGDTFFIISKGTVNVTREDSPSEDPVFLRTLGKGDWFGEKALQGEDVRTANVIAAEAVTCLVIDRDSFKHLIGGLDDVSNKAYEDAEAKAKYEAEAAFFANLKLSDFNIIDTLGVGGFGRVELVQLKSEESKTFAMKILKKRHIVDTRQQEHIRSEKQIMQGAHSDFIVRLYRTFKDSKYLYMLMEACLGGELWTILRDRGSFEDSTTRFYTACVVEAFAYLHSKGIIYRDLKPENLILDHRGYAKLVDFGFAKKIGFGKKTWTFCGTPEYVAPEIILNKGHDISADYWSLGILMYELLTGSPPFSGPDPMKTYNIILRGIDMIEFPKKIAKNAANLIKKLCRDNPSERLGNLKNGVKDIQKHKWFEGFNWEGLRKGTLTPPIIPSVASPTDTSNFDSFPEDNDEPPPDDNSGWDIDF
Description: Inhibition of human PKG1alpha at 50 nM in presence of ATP by radiometric Hotspot kinase assay

[15] = target: Receptor-type tyrosine-protein kinase FLT3 (Homo sapiens) (UniProt P36888); experiment: Inhibition of human FLT3 at 50 nM in presence of ATP by radiometric Hotspot kinase assay relative to control
hERG (KCNH2) = hERG (KCNH2) (Homo sapiens, UniProt Q12809); experiment: Inhibition of human ERG expressed in CHO cells at 10 uM by electrophysiological analysis relative to control; type: toxicity, cell-based; conditions: CHO cells that express human ERG
Sequence of hERG (KCNH2) (Q12809 whole entry): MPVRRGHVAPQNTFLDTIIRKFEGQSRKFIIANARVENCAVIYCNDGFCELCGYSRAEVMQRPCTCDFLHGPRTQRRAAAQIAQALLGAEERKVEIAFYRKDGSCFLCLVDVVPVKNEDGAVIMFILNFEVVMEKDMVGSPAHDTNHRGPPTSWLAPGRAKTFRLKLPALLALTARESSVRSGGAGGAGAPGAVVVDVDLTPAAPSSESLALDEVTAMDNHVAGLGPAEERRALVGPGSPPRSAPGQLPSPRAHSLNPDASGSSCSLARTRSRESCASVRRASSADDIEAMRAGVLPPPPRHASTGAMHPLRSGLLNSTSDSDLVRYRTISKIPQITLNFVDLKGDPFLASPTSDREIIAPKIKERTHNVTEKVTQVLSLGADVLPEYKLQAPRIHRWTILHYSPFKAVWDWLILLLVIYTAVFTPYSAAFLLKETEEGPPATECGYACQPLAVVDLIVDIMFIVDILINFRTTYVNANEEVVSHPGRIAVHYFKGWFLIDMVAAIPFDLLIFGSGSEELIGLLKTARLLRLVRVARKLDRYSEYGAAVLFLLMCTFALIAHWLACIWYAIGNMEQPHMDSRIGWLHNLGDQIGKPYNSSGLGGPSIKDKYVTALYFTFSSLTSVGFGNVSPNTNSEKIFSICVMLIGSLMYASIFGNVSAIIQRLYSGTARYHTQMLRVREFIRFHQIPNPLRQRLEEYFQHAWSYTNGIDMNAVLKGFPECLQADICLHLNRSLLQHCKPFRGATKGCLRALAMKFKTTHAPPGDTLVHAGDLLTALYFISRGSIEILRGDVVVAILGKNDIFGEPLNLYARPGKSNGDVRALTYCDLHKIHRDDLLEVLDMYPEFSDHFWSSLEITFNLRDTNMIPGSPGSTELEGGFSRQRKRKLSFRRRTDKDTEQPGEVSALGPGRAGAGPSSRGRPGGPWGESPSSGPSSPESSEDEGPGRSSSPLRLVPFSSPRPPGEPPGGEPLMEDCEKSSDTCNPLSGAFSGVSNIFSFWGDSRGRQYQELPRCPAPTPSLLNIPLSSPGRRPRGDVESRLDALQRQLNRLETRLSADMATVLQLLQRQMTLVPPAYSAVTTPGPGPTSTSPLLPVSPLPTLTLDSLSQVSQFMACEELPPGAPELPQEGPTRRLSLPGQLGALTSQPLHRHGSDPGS

MDA-MB-468 = experiment: Antiproliferative activity against human MDA-MB-468 cells assessed as growth inhibition; type: functional, cell-based
[16] = target: RAC-alpha serine/threonine-protein kinase (Homo sapiens) (UniProt P31749); experiment: Inhibition of human Akt1 at 50 nM in presence of ATP by radiometric Hotspot kinase assay
Sequence of RAC-alpha serine/threonine-protein kinase (Homo sapiens) (P31749 whole entry): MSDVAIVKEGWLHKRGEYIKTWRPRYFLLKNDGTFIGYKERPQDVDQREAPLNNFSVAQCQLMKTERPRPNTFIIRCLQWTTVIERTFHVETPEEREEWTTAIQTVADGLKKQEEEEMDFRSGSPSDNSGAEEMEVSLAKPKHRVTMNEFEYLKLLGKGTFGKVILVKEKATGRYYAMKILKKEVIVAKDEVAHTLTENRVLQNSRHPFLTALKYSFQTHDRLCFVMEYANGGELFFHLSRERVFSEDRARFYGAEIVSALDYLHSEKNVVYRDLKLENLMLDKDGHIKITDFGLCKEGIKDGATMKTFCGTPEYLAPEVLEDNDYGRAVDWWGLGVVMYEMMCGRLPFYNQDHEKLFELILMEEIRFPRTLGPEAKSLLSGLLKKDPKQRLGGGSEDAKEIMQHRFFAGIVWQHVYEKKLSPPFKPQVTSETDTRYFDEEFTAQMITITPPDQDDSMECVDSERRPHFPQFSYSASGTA

[17] = Apparent permeability across apical to basolateral side in human Caco-2 cells at 10 uM; type: ADME, cell-based; conditions: caco-2, 10 µM
[18] = target: RAC-gamma serine/threonine-protein kinase (Homo sapiens) (UniProt Q9Y243); experiment: Inhibition of human Akt3 at 50 nM in presence of ATP by radiometric Hotspot kinase assay
Sequence of RAC-gamma serine/threonine-protein kinase (Homo sapiens) (Q9Y243 whole entry): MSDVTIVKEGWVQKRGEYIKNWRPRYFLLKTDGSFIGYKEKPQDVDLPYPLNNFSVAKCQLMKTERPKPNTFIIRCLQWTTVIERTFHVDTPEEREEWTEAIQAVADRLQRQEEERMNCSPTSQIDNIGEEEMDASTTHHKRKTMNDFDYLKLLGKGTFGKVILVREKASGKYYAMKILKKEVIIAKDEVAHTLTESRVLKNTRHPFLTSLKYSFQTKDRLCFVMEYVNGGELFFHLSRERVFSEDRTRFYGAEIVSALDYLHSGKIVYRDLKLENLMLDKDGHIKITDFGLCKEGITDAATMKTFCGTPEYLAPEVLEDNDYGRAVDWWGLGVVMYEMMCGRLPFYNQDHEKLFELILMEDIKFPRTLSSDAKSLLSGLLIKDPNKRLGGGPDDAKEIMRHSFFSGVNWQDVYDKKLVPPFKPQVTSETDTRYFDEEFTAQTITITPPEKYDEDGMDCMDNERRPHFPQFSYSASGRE

[19] = target: Dual specificity protein kinase CLK2 (Homo sapiens) (UniProt P49760); experiment: Inhibition of human CLK2 at 50 nM in presence of ATP by radiometric Hotspot kinase assay relative to control
Sequence of Dual specificity protein kinase CLK2 (Homo sapiens) (P49760 whole entry, looked up): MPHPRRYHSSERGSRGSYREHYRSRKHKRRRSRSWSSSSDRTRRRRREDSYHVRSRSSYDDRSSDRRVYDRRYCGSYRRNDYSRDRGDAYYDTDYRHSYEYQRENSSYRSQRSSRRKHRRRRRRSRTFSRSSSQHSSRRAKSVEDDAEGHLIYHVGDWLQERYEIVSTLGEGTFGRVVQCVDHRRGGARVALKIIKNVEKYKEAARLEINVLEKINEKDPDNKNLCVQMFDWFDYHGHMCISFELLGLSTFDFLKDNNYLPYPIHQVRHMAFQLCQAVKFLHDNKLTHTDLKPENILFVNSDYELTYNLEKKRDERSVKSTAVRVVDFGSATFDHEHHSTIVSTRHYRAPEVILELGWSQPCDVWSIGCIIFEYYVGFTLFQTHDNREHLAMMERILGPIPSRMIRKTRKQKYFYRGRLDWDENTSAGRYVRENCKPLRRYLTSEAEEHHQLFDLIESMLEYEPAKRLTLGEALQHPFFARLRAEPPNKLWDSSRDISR

Albumin = Albumin (Homo sapiens, UniProt P02768); experiment: Binding affinity to human serum albumin assessed as protein binding at 10 uM by equilibrium dialysis technique relative to control; type: ADME; conditions: isolated protein
Sequence of Albumin (P02768 whole entry): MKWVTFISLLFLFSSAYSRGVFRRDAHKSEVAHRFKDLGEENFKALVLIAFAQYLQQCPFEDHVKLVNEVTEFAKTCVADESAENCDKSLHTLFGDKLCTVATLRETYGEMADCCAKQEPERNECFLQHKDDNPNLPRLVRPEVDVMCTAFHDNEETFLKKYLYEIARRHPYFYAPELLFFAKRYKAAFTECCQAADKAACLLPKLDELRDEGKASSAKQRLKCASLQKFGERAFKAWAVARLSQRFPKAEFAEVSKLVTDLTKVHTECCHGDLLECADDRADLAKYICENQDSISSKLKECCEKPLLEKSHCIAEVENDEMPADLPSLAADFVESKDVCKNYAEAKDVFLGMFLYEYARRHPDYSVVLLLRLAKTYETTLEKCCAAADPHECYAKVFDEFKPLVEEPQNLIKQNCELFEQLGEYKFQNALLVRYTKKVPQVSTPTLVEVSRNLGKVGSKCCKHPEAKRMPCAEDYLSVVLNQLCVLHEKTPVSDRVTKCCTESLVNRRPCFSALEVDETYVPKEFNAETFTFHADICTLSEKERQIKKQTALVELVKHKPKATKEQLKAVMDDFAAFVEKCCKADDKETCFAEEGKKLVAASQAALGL

SR = experiment: Antiproliferative activity against human SR cells assessed as growth inhibition; type: functional
LOX IMVI = experiment: Antiproliferative activity against human LOX IMVI cells assessed as growth inhibition; type: functional
Homo sapiens = species on record: Homo sapiens; experiment: Induction of thermal stabilization of His-tagged DNAJB1-PKAcalpha (unknown origin) incubated for 15 min by differential scanning fluorometric analysis
[20] = Efflux ratio of apparent permeability across basolateral to apical side over apical to basolateral side in human Caco-2 cells at 10 uM; type: ADME, cell-based
[21] = target: Tyrosine-protein kinase JAK3 (Homo sapiens) (UniProt P52333); experiment: Inhibition of human JAK3 at 50 nM in presence of ATP by radiometric Hotspot kinase assay relative to control
[22] = Inhibition of DNAJB1-PKAcalpha (unknown origin) using biotinylated-peptide substrate CREB incubated for 45 mins in presence of ATP and cAMP by ELISA; design: species or system Homo sapiens
[23] = target: T2, Dual specificity tyrosine-phosphorylation-regulated kinase 2 (Homo sapiens) (UniProt Q92630); experiment: Inhibition of human DYRK2 at 50 nM in presence of ATP by radiometric Hotspot kinase assay relative to control
T2 sequence (whole entry): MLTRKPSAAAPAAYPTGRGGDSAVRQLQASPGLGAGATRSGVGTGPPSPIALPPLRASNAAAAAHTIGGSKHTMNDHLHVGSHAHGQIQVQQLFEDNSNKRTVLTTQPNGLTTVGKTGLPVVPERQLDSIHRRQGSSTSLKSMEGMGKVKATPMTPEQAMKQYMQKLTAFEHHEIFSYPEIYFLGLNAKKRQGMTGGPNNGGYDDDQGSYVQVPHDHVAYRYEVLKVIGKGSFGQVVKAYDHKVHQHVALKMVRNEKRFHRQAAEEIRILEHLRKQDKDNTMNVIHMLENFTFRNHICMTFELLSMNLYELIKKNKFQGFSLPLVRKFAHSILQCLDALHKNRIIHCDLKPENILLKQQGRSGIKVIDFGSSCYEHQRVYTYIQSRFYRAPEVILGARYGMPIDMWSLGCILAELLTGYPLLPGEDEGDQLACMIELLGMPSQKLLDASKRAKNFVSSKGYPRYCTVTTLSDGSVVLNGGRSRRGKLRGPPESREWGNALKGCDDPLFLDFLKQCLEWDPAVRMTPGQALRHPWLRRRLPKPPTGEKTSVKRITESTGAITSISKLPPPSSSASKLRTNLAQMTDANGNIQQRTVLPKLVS

[24] = target: T3, Dual specificity tyrosine-phosphorylation-regulated kinase 3 (Homo sapiens) (UniProt O43781); experiment: Inhibition of human DYRK3 at 50 nM in presence of ATP by radiometric Hotspot kinase assay relative to control
T3 sequence (whole entry): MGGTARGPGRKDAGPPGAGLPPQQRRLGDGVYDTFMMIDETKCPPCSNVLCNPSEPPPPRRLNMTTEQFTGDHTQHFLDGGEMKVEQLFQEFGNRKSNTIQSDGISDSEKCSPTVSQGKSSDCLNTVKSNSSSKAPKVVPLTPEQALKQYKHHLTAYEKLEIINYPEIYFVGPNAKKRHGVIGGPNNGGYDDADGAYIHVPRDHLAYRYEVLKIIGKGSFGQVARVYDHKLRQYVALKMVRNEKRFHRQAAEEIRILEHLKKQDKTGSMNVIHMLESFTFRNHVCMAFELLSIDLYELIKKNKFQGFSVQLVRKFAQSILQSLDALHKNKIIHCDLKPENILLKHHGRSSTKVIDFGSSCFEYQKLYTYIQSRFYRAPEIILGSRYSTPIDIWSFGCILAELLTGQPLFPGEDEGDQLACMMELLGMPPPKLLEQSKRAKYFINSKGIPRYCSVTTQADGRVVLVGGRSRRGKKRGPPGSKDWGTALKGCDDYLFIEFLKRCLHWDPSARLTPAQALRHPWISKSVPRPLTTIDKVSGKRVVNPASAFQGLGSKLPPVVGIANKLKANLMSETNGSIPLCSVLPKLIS

[25] = target: cAMP-dependent protein kinase catalytic subunit alpha (Homo sapiens) (UniProt P17612); conditions: dose 50.0 nM
Description: Inhibition of human PKAalpha at 50 nM in presence of ATP by radiometric Hotspot kinase assay relative to control

[26] = target: Tyrosine-protein kinase JAK2 (Homo sapiens) (UniProt O60674); experiment: Inhibition of human JAK2 at 50 nM in presence of ATP by radiometric Hotspot kinase assay relative to control
[27] = target: Tyrosine-protein kinase JAK1 (Homo sapiens) (UniProt P23458); experiment: Inhibition of human JAK1 at 50 nM in presence of ATP by radiometric Hotspot kinase assay relative to control
[28] = tested on: Panel NCI-60 (60 carcinoma cell lines); experiment: Antiproliferative activity against human Panel NCI-60 (60 carcinoma cell lines) assessed as growth inhibition; type: functional

Sequence of NT-3 growth factor receptor (Homo sapiens) (Q16288 32-839 limits assumed): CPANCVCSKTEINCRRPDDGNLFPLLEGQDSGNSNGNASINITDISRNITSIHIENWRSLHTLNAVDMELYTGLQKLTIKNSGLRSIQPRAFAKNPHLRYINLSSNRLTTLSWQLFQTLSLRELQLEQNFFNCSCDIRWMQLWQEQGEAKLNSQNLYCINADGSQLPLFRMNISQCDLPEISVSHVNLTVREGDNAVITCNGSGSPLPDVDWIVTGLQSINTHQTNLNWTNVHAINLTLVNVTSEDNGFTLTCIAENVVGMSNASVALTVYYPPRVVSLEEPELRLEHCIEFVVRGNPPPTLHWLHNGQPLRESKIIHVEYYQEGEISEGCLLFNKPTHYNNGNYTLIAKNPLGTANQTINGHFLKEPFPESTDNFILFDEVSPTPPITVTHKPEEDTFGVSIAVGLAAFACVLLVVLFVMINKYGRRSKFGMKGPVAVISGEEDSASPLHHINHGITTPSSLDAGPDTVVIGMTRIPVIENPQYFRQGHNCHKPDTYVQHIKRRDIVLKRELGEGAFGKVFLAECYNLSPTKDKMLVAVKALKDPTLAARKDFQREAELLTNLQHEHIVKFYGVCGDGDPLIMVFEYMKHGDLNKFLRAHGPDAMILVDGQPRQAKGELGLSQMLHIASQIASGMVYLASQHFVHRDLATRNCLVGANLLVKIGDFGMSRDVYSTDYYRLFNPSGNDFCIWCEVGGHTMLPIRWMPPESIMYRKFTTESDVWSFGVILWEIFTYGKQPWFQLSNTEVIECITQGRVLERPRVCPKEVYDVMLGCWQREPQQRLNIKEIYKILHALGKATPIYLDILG

Structure (SMILES) | inhibition [1] [%] | Activity (OVCAR-4) | inhibition [2] | Activity (MOLT-4) | t1/2 [4] [h] | IC50 [6] [µM] | solubility thermodynamic [8] [µM] | Drug metabolism [9] | inhibition [10] | CLH [11] [µL/min/mg] | Papp [13] | Activity (NCI/ADR-RES) | inhibition at 10 µM (hERG (KCNH2)) [%] | Activity (MDA-MB-468) | inhibition [16] | Papp [17] | inhibition [18] | PB (Albumin) [%] | Activity (SR) | GI50 (LOX IMVI) [µM] | further results
Cc1c[nH]c2ncnc(N3C=C(C(=O)N4CCC[C@@H](N)C4)SCC3)c12 | > 50 | inactive | Active | Active | > 1 | 3.4 | > 200 | metabolite_notdetected | Active | < 115 | 6.6 10^-6 cm/s | inactive | 28 | Active | Active | 0.1 10^-6 cm/s | Active | 84 | Active | > 1 | inhibition [3]: Active; inhibition [5]: Active; inhibition [7]: Active; inhibition [12]: Active; inhibition [14]: Active; inhibition [15]: > 50%; inhibition [19]: Active; Activity (Homo sapiens): Dose-dependent-effect
O=C(N[C@@H](c1ccccc1)[C@H]1CCCN1)C1=CN(c2ncnc3[nH]ccc23)CCS1 | > 50 | inactive | Active | Active | > 1 | 0.66 | > 200 | metabolite_notdetected | Active | < 115 | 19.7 10^-6 cm/s | inactive | 33 | Active | Active | 0.3 10^-6 cm/s | Active | 84 | Active | 0.04 | efflux ratio at 10 µM [20]: 66; inhibition [21]: > 50%; IC50 [22]: 0.006 µM; inhibition [23]: Active; inhibition [24]: Active; inhibition [25]: Active; inhibition [26]: > 50%; inhibition [27]: > 50%
Cn1c(Br)nc(Br)c1C1=CN(c2ncnc3[nH]cnc23)CCS1 | – | inactive | – | Active | – | – | – | – | – | – | – | inactive | – | Active | – | – | – | – | Active | > 1 | GI50 [28]: 0.36 µM
C1=C(c2ccnc3[nH]ccc23)SCCN1c1ccnc2[nH]ccc12 | – | inactive | – | – | – | – | – | – | – | – | – | inactive | – | Active | – | – | – | – | – | > 1 | LC50 (MOLT-4): 0.78 µM; IC50 [22]: 2.8 µM; GI50 [28]: 1.55 µM; LC50 (SR): 0.6 µM
